Data taken from patent publication US10905781B2, “Reporter platform for real time monitoring of drug efficacy” (THE BRIGHAM AND WOMEN'S HOSPITAL, INC., priority 2016, dated 2021).
Ends that are not written are not given here.

Tested on: effector caspases (caspase-3 and caspase-7) compared with initiator caspases (caspase-6 and caspase-9)
Experiment: Activation of the NIR FRET reporter element by caspases
Assay type: biochemical
Details: caspase-3 and caspase-7 compared with caspase-6 and caspase-9
Experimental: FIG. 15A is a graph showing the time-dependent activation of the reporter element (with the NIR FRET pair) in the presence of caspase-3. Reporter element (50 μM) was incubated in the presence of 50 U caspase-3 enzyme at 37° C., which results in the cleavage of the DEVD sequence and removing the quenching effect of Dylight 766Q on the fluorophore Dylight 755. The increase in fluorescence over time was monitored.

reporter element: caspase-3 cleavable sequence GKDEVDAPC-CONH2 to which a NIR FRET-pair (Dylight 755 / Dylight 766Q) is conjugated (GKDEVDAPC-NH2; also: Dylight 755 / Dylight 766Q FRET pair conjugated)
activation of the NIR-based fluorophore by effector versus initiator caspases: selective activation
